According to patent publication US8883749B2, “Transcription factor inhibitors and related compositions, formulations and methods” (The Ohio State University, priority 2009, dated 2014):
Blank lines part the entries; values can stand above or below the molecule they belong to.

Legend:
[1] = test system: HPAC pancreatic cancer cells; assay: MTT cell viability assay; format: cell-based, human; conditions: Homo sapiens, 72 hours, 10% FBS, read-out: half-maximal inhibitory concentration (IC50), cell viability
Method: (§1) STAT3 activation is important for tumor cell proliferation and survival.
(§2) The cells were incubated at 37° C. for a period of 72 hours. 3-(4,5-Dimethylthiazolyl)-2,5-diphenyltetrazolium bromide (MTT) viability assay was done according to manufacturer's protocol (Roche Diagnostics, Mannheim, Germany). […] Half-maximal inhibitory concentrations (IC50) were determined using Sigma Plot 9.0 Software (Systat Software Inc., San Jose, Calif.).

[2] = test system: MDA-MB-231 breast cancer cells; assay: MTT cell viability assay; format: cell-based, human; conditions: Homo sapiens; MDA-MB-231, MTT, 72 hours, 10% FBS; read-out: half-maximal inhibitory concentration (IC50), cell viability
Method: as §1, §2

[3] = test system: PANC-1 pancreatic cancer cells; assay: MTT cell viability assay; format: cell-based, human; conditions: Homo sapiens; PANC-1, MTT, 72 hours, 10% FBS; read-out: half-maximal inhibitory concentration (IC50), cell viability
Method: as §1, §2

[4] = test system: SK-BR-3 breast cancer cells; assay: MTT cell viability assay; format: cell-based, human; conditions: Homo sapiens; SK-BR-3, MTT, 72 hours, 10% FBS; read-out: half-maximal inhibitory concentration (IC50), cell viability
Method: as §1, §2

[5] = test system: U373 glioblastoma cells; assay: MTT cell viability assay; format: cell-based, human; conditions: Homo sapiens, U373 MG, 72 hours, 10% FBS, read-out: half-maximal inhibitory concentration (IC50), cell viability
Method: as §1, §2

[6] = molecular target: T1, Fes (Homo sapiens, UniProt P07332); assay: Kinase profiler assay; format: biochemical; conditions: 10 concentrations, 100 μM highest
T1 construct: purchased Millipore UK Limited (Dundee, UK) or Reaction Biology Corp. (Malvern, Pa.)
T1 sequence (P07332 whole entry): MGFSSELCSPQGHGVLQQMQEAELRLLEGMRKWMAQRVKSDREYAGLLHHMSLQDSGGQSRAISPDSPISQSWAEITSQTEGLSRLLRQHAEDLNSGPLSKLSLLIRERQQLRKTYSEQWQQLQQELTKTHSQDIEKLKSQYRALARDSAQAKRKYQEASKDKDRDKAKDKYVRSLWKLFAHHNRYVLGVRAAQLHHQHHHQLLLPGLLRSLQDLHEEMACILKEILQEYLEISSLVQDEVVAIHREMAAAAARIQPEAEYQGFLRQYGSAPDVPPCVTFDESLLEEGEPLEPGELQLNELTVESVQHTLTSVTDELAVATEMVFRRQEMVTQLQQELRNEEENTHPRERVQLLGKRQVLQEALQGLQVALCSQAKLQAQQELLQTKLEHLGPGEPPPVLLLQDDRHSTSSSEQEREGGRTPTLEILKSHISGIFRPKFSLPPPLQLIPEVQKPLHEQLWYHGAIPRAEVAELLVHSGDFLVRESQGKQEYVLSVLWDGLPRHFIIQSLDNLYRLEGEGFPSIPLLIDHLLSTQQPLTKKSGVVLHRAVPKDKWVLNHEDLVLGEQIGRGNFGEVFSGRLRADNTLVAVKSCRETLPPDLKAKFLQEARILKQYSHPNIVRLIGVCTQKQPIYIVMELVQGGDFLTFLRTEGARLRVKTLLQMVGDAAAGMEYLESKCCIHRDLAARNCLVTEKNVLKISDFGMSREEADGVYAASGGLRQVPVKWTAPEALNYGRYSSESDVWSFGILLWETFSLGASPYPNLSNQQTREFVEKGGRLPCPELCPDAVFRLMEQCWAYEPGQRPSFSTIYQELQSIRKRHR

[7] = molecular target: T2, JAK2 (Homo sapiens, UniProt O60674); assay: Kinase profiler assay; format: biochemical; conditions: 10 concentrations, 100 μM highest
T2 construct: purchased Millipore UK Limited (Dundee, UK) or Reaction Biology Corp. (Malvern, Pa.)

[8] = molecular target: T3, Bmx (Homo sapiens, UniProt P51813); assay: Kinase profiler assay; format: biochemical; conditions: 10 concentrations, 100 μM highest
T3 construct: purchased Millipore UK Limited (Dundee, UK) or Reaction Biology Corp. (Malvern, Pa.)

[9] = molecular target: T4, c-SRC (Homo sapiens, UniProt P12931); assay: Kinase profiler assay; format: biochemical; conditions: 10 concentrations, 100 μM highest
T4 construct: purchased Millipore UK Limited (Dundee, UK) or Reaction Biology Corp. (Malvern, Pa.)

[10] = molecular target: T5, AKT1 (Homo sapiens, UniProt P31749); assay: Kinase profiler assay; format: biochemical; conditions: 10 concentrations, 100 μM highest
T5 construct: purchased Millipore UK Limited (Dundee, UK) or Reaction Biology Corp. (Malvern, Pa.)
T5 sequence (P31749 whole entry): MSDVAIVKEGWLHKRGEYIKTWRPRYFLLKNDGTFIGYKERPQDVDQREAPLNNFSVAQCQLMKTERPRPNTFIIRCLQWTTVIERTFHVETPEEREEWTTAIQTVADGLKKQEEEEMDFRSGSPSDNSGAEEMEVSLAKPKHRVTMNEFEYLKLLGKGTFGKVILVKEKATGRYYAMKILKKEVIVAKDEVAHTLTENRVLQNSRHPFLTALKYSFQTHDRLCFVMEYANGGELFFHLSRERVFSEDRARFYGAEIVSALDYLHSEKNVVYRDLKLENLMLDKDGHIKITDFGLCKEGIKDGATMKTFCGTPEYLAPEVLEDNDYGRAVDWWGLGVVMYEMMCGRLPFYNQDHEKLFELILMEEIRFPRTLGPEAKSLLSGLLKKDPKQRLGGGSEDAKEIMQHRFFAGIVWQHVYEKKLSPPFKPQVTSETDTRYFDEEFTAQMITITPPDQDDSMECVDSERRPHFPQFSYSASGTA

[11] = molecular target: T6, CDK4/CyclinD1 (Homo sapiens, UniProt P11802); assay: Kinase profiler assay; format: biochemical; conditions: 10 concentrations, 100 μM highest
T6 construct: purchased Millipore UK Limited (Dundee, UK) or Reaction Biology Corp. (Malvern, Pa.)

[12] = molecular target: T7, CDK6/CyclinD1 (Homo sapiens, UniProt Q00534); assay: Kinase profiler assay; format: biochemical; conditions: 10 concentrations, 100 μM highest
T7 construct: purchased Millipore UK Limited (Dundee, UK) or Reaction Biology Corp. (Malvern, Pa.)

[13] = molecular target: T8, CHK1 (Homo sapiens, UniProt O14757); assay: Kinase profiler assay; format: biochemical; conditions: 10 concentrations, 100 μM highest
T8 construct: purchased Millipore UK Limited (Dundee, UK) or Reaction Biology Corp. (Malvern, Pa.)

[14] = molecular target: T9, C-Kit (Homo sapiens, UniProt P10721); assay: Kinase profiler assay; format: biochemical; conditions: 10 concentrations, 100 μM highest
T9 construct: purchased Millipore UK Limited (Dundee, UK) or Reaction Biology Corp. (Malvern, Pa.)

[15] = molecular target: T10, C-RAF (Homo sapiens, UniProt P04049); assay: Kinase profiler assay; format: biochemical; conditions: 10 concentrations, 100 μM highest
T10 construct: purchased Millipore UK Limited (Dundee, UK) or Reaction Biology Corp. (Malvern, Pa.)

[16] = molecular target: T11, EGFR (Homo sapiens, UniProt P00533); assay: Kinase profiler assay; format: biochemical; conditions: 10 concentrations, 100 μM highest
T11 construct: purchased Millipore UK Limited (Dundee, UK) or Reaction Biology Corp. (Malvern, Pa.)
T11 sequence (P00533 25-1210): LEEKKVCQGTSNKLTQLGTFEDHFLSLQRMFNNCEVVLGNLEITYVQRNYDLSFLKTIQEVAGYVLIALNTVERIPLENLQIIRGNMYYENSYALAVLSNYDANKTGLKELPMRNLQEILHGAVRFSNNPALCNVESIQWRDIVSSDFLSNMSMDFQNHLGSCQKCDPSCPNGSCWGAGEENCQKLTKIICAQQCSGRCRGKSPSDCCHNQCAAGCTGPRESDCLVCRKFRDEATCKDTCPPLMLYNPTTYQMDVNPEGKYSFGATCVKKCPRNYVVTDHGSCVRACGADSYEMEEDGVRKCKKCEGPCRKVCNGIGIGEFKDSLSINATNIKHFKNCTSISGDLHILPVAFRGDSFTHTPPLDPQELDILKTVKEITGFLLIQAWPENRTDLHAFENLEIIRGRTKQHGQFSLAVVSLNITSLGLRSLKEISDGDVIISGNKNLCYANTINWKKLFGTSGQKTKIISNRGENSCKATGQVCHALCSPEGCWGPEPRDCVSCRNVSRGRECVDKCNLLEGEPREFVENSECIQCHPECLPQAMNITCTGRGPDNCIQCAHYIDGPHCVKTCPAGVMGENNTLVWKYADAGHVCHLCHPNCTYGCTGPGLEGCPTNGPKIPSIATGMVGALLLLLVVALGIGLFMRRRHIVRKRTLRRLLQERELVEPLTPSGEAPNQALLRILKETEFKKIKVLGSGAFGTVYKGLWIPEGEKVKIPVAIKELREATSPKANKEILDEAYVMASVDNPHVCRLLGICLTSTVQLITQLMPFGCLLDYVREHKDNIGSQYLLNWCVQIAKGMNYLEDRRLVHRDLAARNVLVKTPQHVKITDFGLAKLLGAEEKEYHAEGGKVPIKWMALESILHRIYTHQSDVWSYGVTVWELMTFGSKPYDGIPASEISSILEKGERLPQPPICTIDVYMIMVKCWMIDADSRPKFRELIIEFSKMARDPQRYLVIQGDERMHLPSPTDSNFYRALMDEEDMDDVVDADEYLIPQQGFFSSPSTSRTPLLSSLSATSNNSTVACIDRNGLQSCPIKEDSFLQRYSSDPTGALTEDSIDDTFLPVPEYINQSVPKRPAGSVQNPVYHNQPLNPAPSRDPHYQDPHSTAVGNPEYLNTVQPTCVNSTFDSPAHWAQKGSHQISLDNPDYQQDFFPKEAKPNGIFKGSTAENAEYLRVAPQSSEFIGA

[17] = molecular target: T12, Erb B2/H ER2 (Homo sapiens, UniProt P04626); assay: Kinase profiler assay; format: biochemical; conditions: 10 concentrations, 100 μM highest
T12 construct: purchased Millipore UK Limited (Dundee, UK) or Reaction Biology Corp. (Malvern, Pa.)

[18] = molecular target: T13, Met (Homo sapiens, UniProt P08581); assay: Kinase profiler assay; format: biochemical; conditions: 10 concentrations, 100 μM highest
T13 construct: purchased Millipore UK Limited (Dundee, UK) or Reaction Biology Corp. (Malvern, Pa.)

[19] = molecular target: T14, Pyk2 (Homo sapiens, UniProt Q14289); assay: Kinase profiler assay; format: biochemical; conditions: 10 concentrations, 100 μM highest
T14 construct: purchased Millipore UK Limited (Dundee, UK) or Reaction Biology Corp. (Malvern, Pa.)

[20] = molecular target: T15, Syk (Homo sapiens, UniProt P43405); assay: Kinase profiler assay; format: biochemical; conditions: 10 concentrations, 100 μM highest
T15 construct: purchased Millipore UK Limited (Dundee, UK) or Reaction Biology Corp. (Malvern, Pa.)

[21] = molecular target: T16, Fyn (Homo sapiens, UniProt P06241); assay: Kinase profiler assay; format: biochemical; conditions: 10 concentrations, 100 μM highest
T16 construct: purchased Millipore UK Limited (Dundee, UK) or Reaction Biology Corp. (Malvern, Pa.)

[22] = molecular target: T17, Yes (Homo sapiens, UniProt P07947); assay: Kinase profiler assay; format: biochemical; conditions: 10 concentrations, 100 μM highest
T17 construct: purchased Millipore UK Limited (Dundee, UK) or Reaction Biology Corp. (Malvern, Pa.)

[23] = molecular target: T18, mTOR (Homo sapiens, UniProt P42345); assay: Kinase profiler assay; format: biochemical; conditions: 10 concentrations, 100 μM highest
T18 construct: purchased Millipore UK Limited (Dundee, UK) or Reaction Biology Corp. (Malvern, Pa.)

[24] = molecular target: T19, PAK1 (Homo sapiens, UniProt Q13153); assay: Kinase profiler assay; format: biochemical; conditions: 10 concentrations, 100 μM highest
T19 construct: purchased Millipore UK Limited (Dundee, UK) or Reaction Biology Corp. (Malvern, Pa.)
T19 sequence (Q13153 whole entry): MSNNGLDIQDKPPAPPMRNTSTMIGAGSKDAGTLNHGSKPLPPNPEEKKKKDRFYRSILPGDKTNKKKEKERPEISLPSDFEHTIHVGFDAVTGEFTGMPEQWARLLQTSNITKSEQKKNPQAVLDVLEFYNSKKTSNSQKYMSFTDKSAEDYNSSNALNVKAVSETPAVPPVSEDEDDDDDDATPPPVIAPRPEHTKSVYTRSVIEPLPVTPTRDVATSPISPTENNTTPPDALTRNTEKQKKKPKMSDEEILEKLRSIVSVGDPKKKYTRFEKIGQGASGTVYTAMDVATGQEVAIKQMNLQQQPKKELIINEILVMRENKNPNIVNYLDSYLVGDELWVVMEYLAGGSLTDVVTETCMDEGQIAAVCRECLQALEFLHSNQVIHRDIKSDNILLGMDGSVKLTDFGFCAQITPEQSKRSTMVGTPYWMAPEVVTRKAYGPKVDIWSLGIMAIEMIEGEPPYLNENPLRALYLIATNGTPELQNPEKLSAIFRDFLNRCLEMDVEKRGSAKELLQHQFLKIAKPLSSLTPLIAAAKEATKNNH

[25] = molecular target: T20, PDK1 (Homo sapiens, UniProt O15530); assay: Kinase profiler assay; format: biochemical; conditions: 10 concentrations, 100 μM highest
T20 construct: purchased Millipore UK Limited (Dundee, UK) or Reaction Biology Corp. (Malvern, Pa.)

[26] = molecular target: T21, P13K (P110a/85a) (Homo sapiens, UniProt P42336); assay: Kinase profiler assay; format: biochemical; conditions: 10 concentrations, 100 μM highest
T21 construct: purchased Millipore UK Limited (Dundee, UK) or Reaction Biology Corp. (Malvern, Pa.)

[27] = molecular target: T22, P13K (P110b/85a) (Homo sapiens, UniProt P42338); assay: Kinase profiler assay; format: biochemical; conditions: 10 concentrations, 100 μM highest
T22 construct: purchased Millipore UK Limited (Dundee, UK) or Reaction Biology Corp. (Malvern, Pa.)
T22 sequence (P42338 whole entry, stated change not applied): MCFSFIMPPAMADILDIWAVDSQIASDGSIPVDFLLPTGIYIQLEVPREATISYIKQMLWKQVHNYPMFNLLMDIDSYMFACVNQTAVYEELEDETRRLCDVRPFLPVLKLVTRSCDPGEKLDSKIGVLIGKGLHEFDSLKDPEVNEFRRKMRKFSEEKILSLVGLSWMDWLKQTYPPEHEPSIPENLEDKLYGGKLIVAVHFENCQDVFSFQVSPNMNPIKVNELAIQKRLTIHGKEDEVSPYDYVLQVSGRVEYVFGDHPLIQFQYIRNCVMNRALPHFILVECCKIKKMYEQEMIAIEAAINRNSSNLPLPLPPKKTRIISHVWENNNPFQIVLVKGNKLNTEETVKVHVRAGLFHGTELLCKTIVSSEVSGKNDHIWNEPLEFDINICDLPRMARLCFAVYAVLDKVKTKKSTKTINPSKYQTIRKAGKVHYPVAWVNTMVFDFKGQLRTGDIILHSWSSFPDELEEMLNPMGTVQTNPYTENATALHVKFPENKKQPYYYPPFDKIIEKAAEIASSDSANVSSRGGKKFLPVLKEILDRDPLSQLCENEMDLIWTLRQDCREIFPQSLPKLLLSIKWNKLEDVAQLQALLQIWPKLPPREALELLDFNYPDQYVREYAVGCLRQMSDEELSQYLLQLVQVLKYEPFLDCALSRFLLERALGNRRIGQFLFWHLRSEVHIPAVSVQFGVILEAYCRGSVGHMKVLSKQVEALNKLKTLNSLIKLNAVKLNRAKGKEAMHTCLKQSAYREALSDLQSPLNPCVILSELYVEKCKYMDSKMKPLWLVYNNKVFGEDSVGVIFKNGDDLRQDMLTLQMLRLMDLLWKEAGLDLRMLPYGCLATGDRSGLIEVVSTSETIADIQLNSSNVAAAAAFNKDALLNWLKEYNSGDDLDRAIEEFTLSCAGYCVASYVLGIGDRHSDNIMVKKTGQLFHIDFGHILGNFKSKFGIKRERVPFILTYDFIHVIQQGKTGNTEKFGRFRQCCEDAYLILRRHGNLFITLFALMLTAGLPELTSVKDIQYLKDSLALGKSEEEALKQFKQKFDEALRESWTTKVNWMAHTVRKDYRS
T22 sequence (P27986 2-724 partner): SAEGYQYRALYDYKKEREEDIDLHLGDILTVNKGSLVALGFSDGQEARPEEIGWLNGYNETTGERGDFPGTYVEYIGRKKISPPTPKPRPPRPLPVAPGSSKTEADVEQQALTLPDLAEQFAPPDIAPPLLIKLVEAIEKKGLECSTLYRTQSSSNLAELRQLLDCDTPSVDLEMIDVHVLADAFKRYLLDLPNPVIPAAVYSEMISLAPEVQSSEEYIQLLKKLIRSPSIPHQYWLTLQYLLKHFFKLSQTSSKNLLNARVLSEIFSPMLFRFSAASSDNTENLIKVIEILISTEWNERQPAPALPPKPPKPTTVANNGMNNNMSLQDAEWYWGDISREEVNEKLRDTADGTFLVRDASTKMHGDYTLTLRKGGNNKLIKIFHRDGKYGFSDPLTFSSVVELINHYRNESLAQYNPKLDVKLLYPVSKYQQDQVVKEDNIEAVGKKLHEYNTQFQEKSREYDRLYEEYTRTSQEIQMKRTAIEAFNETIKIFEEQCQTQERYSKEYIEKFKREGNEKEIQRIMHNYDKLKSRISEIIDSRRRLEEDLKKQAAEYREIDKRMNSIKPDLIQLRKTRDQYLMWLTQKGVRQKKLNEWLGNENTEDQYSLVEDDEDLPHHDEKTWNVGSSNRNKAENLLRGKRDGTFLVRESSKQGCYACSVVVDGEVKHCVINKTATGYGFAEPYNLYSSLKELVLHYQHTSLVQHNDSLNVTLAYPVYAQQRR

[28] = molecular target: T23, PKC-b (Homo sapiens, UniProt P05771); assay: Kinase profiler assay; format: biochemical; conditions: 10 concentrations, 100 μM highest
T23 construct: purchased Millipore UK Limited (Dundee, UK) or Reaction Biology Corp. (Malvern, Pa.)

[29] = molecular target: T24, TAK1 (Homo sapiens, UniProt O43318); assay: Kinase profiler assay; format: biochemical; conditions: 10 concentrations, 100 μM highest
T24 construct: purchased Millipore UK Limited (Dundee, UK) or Reaction Biology Corp. (Malvern, Pa.)

[30] = molecular target: T25, VEGFR1 (Homo sapiens, UniProt P17948); assay: Kinase profiler assay; format: biochemical; conditions: 10 concentrations, 100 μM highest
T25 construct: purchased Millipore UK Limited (Dundee, UK) and Reaction Biology Corp. (Malvern, Pa.)

[31] = test system: MDA-MB-231 cells; assay: Soft agar colony formation assay; format: cell-based, human; conditions: LLL12 1 μM or 5 μM, two weeks
Method: A base 0.6% agar gel with 10% FBS in DMEM was prepared and added to the wells of a 6-well culture dish. […] The cells were maintained at 37° C. and allowed to grow for two weeks. The colonies were stained using MTT dye (100 μL per well). Pictures of the colonies were taken using a Leica MZ 16FA inverted microscope (Leica Microsystems) with a 7.4 Slider Camera (Diagnostic Instruments Inc.). The colonies were scored by counting and numbers were normalized as a percentage of colonies formed in DMSO.

[32] = test system: HPDE, HMEC, HH and WI-38 cells; assay: Western blot, cleaved PARP and caspase-3 in normal cells; conditions: LLL12 5 μM or 10 μM, 24 hours

IC50 [1]: 2.52 µM
IC50 [2]: 7.48 µM
IC50 [3]: 5.12 µM
IC50 [4]: 3.31 µM
IC50 [5]: 5.16 µM
SMILES: C[C@H](NC(=O)/C(C#N)=C/c1cccc(Br)n1)c1ccccc1 [WP1066]

IC50 [6]: > 100 µM
IC50 [7]: > 100 µM
IC50 [8]: > 100 µM
IC50 [9]: > 100 µM
IC50 [10]: > 100 µM
IC50 [11]: 77.9 µM
IC50 [12]: > 100 µM
IC50 [13]: > 100 µM
IC50 [14]: > 100 µM
IC50 [15]: > 100 µM
IC50 [16]: > 100 µM
IC50 [17]: > 100 µM
IC50 [18]: > 100 µM
IC50 [19]: > 100 µM
IC50 [20]: > 100 µM
IC50 [21]: > 100 µM
IC50 [22]: > 100 µM
IC50 [23]: > 100 µM
IC50 [24]: > 100 µM
IC50 [25]: > 100 µM
IC50 [26]: > 100 µM
IC50 [27]: > 100 µM
IC50 [28]: > 100 µM
IC50 [29]: > 100 µM
IC50 [30]: > 100 µM
cleaved PARP or caspase-3 in cells without elevated STAT3 phosphorylation [32]: did not induce cleaved PARP or caspase-3
SMILES: NS(=O)(=O)c1cccc2c1C(=O)c1cccc(O)c1C2=O [LLL12]
decrease in colony formation compared to the DMSO control [31]: over 95%
